Tests used:
[1] = Drug excretion in human feces treated with [14C]brivanib alaninate at 800 mg, po administered as single dose […] by HPLC analysis; format: ADME, organism-based; settings: in vivo
Plasma [2] = test: Drug level in human plasma assessed as compound formation treated with [14C]brivanib alaninate at 800 mg, po administered as single dose via gavage measured after 8 hrs by HPLC analysis; format: ADME, organism-based; settings: in vivo
[3] = Drug excretion in human urine treated with [14C]brivanib alaninate at 800 mg, po administered as single dose […] by HPLC analysis; format: ADME, organism-based; settings: in vivo
Plasma [4] = test: Drug level in human plasma assessed as compound formation treated with [14C]brivanib alaninate at 800 mg, po administered as single dose via gavage measured after 12 hrs by HPLC analysis; format: ADME, organism-based; settings: in vivo
Plasma [5] = test: Drug level in cynomolgus monkey plasma assessed as compound formation treated with [14C]brivanib alaninate at 10 mg/kg, po administered as single dose via gavage measured after 12 hrs by HPLC analysis; format: ADME, organism-based, Macaca fascicularis; settings: in vivo
Plasma [6] = test: Drug level in human plasma assessed as compound formation treated with [14C]brivanib alaninate at 800 mg, po administered as single dose via gavage measured after 1 hr by HPLC analysis; format: ADME, organism-based; settings: in vivo
Plasma [7] = test: Drug level in Sprague-Dawley rat plasma assessed as compound formation treated with [14C]brivanib alaninate at 100 mg/kg, po administered as single dose via gavage measured after 2 hrs by mass spectrometry; format: ADME, organism-based; settings: in vivo
Plasma [8] = test: Drug level in human plasma assessed as compound formation treated with [14C]brivanib alaninate at 800 mg, po administered as single dose via gavage measured after 4 hrs by HPLC analysis; format: ADME, organism-based; settings: in vivo
[9] = Drug level in bile duct-cannulated rat bile treated with [14C]brivanib alaninate at 100 mg/kg, po administered as single dose via gavage by mass spectrometry; format: ADME, organism-based; settings: in vivo
Plasma [10] = test: Drug level in cynomolgus monkey plasma assessed as compound formation treated with [14C]brivanib alaninate at 10 mg/kg, po administered as single dose via gavage measured after 2 hrs by HPLC analysis; format: ADME, organism-based, Macaca fascicularis; settings: in vivo
Plasma [11] = test: Drug level in cynomolgus monkey plasma assessed as compound formation treated with [14C]brivanib alaninate at 10 mg/kg, po administered as single dose via gavage measured after 4 hrs by HPLC analysis; format: ADME, organism-based, Macaca fascicularis; settings: in vivo
Plasma [12] = test: Drug level in Sprague-Dawley rat plasma assessed as compound formation treated with [14C]brivanib alaninate at 100 mg/kg, po administered as single dose via gavage measured after 6 hrs by mass spectrometry; format: ADME, organism-based; settings: in vivo
Plasma [13] = test: Drug level in cynomolgus monkey plasma assessed as compound formation treated with [14C]brivanib alaninate at 10 mg/kg, po administered as single dose via gavage measured after 6 hrs by HPLC analysis; format: ADME, organism-based, Macaca fascicularis; settings: in vivo
[14] = Drug excretion in cynomolgus monkey feces treated with [14C]brivanib alaninate at 10 mg/kg, po administered as single dose via gavage by HPLC analysis; format: ADME, organism-based, Macaca fascicularis; settings: in vivo
Plasma [15] = test: Drug level in cynomolgus monkey plasma assessed as compound formation treated with [14C]brivanib alaninate at 10 mg/kg, po administered as single dose via gavage measured after 1 hr by HPLC analysis; format: ADME, organism-based, Macaca fascicularis; settings: in vivo
Plasma [16] = test: Drug level in Sprague-Dawley rat plasma assessed as compound formation treated with [14C]brivanib alaninate at 100 mg/kg, po administered as single dose via gavage measured after 1 hr by mass spectrometry; format: ADME, organism-based; settings: in vivo
[17] = Drug excretion in Sprague-Dawley rat feces treated with [14C]brivanib alaninate at 100 mg/kg, po administered as single dose via gavage by HPLC analysis; format: ADME, organism-based; settings: in vivo
Plasma [18] = test: Drug level in human plasma assessed as compound formation treated with [14C]brivanib alaninate at 800 mg, po administered as single dose via gavage measured after 2 hrs by HPLC analysis; format: ADME, organism-based; settings: in vivo
[19] = Drug excretion in cynomolgus monkey urine treated with [14C]brivanib alaninate at 10 mg/kg, po administered as single dose via gavage by HPLC analysis; format: ADME, organism-based, Macaca fascicularis; settings: in vivo
[20] = Drug excretion in bile duct-cannulated cynomolgus monkey bile treated with [14C]brivanib alaninate at 10 mg/kg, po administered as single dose via gavage by HPLC analysis; format: ADME, organism-based, Macaca fascicularis; settings: in vivo
[21] = Drug excretion in Sprague-Dawley rat urine treated with [14C]brivanib alaninate at 100 mg/kg, po administered as single dose via gavage by HPLC analysis; format: ADME, organism-based; settings: in vivo
[22] = Drug excretion in bile duct-cannulated rat bile treated with [14C]brivanib alaninate at 100 mg/kg, po administered as single dose via gavage by HPLC analysis; format: ADME, organism-based; settings: in vivo
[23] = Drug level in cynomolgus monkey urine treated with [14C]brivanib alaninate at 10 mg/kg, po administered as single dose via gavage by mass spectrometry; format: ADME, organism-based, Macaca fascicularis; settings: in vivo
[24] = molecular target: Vascular endothelial growth factor receptor 2 (Homo sapiens, UniProt P35968); test: Inhibition of human recombinant VEGFR-2
[25] = molecular target: Fibroblast growth factor receptor 1 (Homo sapiens, UniProt P11362); test: Inhibition of human recombinant FGFR-1
Plasma [26] = test: Drug level in Sprague-Dawley rat plasma assessed as compound formation treated with [14C]brivanib alaninate at 100 mg/kg, po administered as single dose via gavage measured after 6 hrs by HPLC analysis; format: ADME, organism-based; settings: in vivo
Rattus norvegicus [27] = test: Drug uptake in Sprague-Dawley rat plasma treated with [14C]brivanib alaninate assessed as AUC (0 to 6 hrs) of total radio activity at 100 mg/kg, po administered as single oral dose by HPLC analysis; format: ADME, organism-based; settings: in vivo
Rattus norvegicus [28] = test: AUC (0 to 6 hrs) Sprague-Dawley rat plasma treated with [14C]brivanib alaninate at 100 mg/kg, po administered as single oral dose by HPLC analysis; format: ADME, organism-based; settings: in vivo
Plasma [29] = test: Drug level in Sprague-Dawley rat plasma assessed as compound formation treated with [14C]brivanib alaninate at 100 mg/kg, po administered as single dose via gavage measured after 2 hrs by HPLC analysis; format: ADME, organism-based; settings: in vivo
Homo sapiens [30] = test: AUC (0 to 12 hrs) human plasma treated with [14C]brivanib alaninate at 800 mg, po administered as single oral dose by HPLC analysis; format: ADME, organism-based; settings: in vivo
Homo sapiens [31] = test: Drug uptake in human plasma treated with [14C]brivanib alaninate assessed as AUC (0 to 12 hrs) of total radio activity at 800 mg, po administered as single oral dose by HPLC analysis; format: ADME, organism-based; settings: in vivo
Cynomolgus monkey [32] = test: AUC (0 to 12 hrs) cynomolgus monkey plasma treated with [14C]brivanib alaninate at 10 mg/kg, po administered as single oral dose by HPLC analysis; format: ADME, organism-based, Macaca fascicularis; settings: in vivo
Plasma [33] = test: Drug level in Sprague-Dawley rat plasma assessed as compound formation treated with [14C]brivanib alaninate at 100 mg/kg, po administered as single dose via gavage measured after 1 hr by HPLC analysis; format: ADME, organism-based; settings: in vivo
Cynomolgus monkey [34] = test: Drug uptake in cynomolgus monkey plasma treated with [14C]brivanib alaninate assessed as AUC (0 to 12 hrs) of total radio activity at 10 mg/kg, po administered as single oral dose by HPLC analysis; format: ADME, organism-based, Macaca fascicularis; settings: in vivo
Cynomolgus monkey [35] = test: Tmax in cynomolgus monkey plasma treated with [14C]brivanib alaninate at 10 mg/kg, po administered as single dose via gavage by LC-MS/MS analysis; format: ADME, organism-based, Macaca fascicularis; settings: in vivo
Cynomolgus monkey [36] = test: AUC (0 to t) in cynomolgus monkey plasma treated with [14C]brivanib alaninate at 10 mg/kg, po administered as single dose via gavage by LC-MS/MS analysis; format: ADME, organism-based, Macaca fascicularis; settings: in vivo
Homo sapiens [37] = test: Tmax in human plasma treated with [14C]brivanib alaninate at 800 mg, po administered as single dose […] by LC-MS/MS analysis; format: ADME, organism-based; settings: in vivo
Rattus norvegicus [38] = test: AUC (0 to t) in Sprague-Dawley rat plasma treated with [14C]brivanib alaninate at 100 mg/kg, po administered as single dose via gavage by LC-MS/MS analysis; format: ADME, organism-based; settings: in vivo
Rattus norvegicus [39] = test: Cmax in Sprague-Dawley rat plasma treated with [14C]brivanib alaninate at 100 mg/kg, po administered as single dose via gavage by LC-MS/MS analysis; format: ADME, organism-based; settings: in vivo
Homo sapiens [40] = test: AUC (0 to t) in human plasma treated with [14C]brivanib alaninate at 800 mg, po administered as single dose […] by LC-MS/MS analysis; format: ADME, organism-based; settings: in vivo
Cynomolgus monkey [41] = test: Cmax in cynomolgus monkey plasma treated with [14C]brivanib alaninate at 10 mg/kg, po administered as single dose via gavage by LC-MS/MS analysis; format: ADME, organism-based, Macaca fascicularis; settings: in vivo
Homo sapiens [42] = test: Cmax in human plasma treated with [14C]brivanib alaninate at 800 mg, po administered as single dose […] by LC-MS/MS analysis; format: ADME, organism-based; settings: in vivo
Liver microsome = test: Drug metabolism in human liver microsomes assessed as (R)-1-(4-(4-fluoro-2-(hydroxymethyl)-1H-indol-5-yloxy)-5-methylpyrrolo[1,2-f][1,2,4]triazin-6-yloxy)propan-2-ol formation by LC-MS/MS analysis in presence of NADPH; format: ADME
Rattus norvegicus [43] = test: Tmax in Sprague-Dawley rat plasma treated with [14C]brivanib alaninate at 100 mg/kg, po administered as single dose via gavage by LC-MS/MS analysis; format: ADME, organism-based; settings: in vivo

Fibroblast growth factor receptor 1, sequence (P11362 whole entry): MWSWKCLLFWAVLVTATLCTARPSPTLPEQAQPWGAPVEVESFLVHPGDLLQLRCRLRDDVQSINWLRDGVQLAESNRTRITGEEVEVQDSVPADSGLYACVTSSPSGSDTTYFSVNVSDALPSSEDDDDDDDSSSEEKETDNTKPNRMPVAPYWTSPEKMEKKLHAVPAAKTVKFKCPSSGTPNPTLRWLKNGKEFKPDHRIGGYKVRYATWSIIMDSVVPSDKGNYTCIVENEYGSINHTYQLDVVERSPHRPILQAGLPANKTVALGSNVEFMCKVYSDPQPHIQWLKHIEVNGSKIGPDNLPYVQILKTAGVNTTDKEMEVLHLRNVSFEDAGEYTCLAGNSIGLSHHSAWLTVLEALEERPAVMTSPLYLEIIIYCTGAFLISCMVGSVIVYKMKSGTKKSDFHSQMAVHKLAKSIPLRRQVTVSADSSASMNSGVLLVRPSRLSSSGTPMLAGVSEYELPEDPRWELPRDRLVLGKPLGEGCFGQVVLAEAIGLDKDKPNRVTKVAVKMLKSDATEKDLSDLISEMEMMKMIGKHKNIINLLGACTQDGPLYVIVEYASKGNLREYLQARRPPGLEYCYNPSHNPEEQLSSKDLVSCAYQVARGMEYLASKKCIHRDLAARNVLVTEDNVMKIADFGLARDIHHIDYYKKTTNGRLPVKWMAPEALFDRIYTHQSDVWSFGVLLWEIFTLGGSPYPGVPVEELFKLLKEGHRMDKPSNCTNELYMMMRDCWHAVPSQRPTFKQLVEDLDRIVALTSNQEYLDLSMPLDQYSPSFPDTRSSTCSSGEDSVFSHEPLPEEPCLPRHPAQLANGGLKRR
Vascular endothelial growth factor receptor 2, sequence (P35968 whole entry): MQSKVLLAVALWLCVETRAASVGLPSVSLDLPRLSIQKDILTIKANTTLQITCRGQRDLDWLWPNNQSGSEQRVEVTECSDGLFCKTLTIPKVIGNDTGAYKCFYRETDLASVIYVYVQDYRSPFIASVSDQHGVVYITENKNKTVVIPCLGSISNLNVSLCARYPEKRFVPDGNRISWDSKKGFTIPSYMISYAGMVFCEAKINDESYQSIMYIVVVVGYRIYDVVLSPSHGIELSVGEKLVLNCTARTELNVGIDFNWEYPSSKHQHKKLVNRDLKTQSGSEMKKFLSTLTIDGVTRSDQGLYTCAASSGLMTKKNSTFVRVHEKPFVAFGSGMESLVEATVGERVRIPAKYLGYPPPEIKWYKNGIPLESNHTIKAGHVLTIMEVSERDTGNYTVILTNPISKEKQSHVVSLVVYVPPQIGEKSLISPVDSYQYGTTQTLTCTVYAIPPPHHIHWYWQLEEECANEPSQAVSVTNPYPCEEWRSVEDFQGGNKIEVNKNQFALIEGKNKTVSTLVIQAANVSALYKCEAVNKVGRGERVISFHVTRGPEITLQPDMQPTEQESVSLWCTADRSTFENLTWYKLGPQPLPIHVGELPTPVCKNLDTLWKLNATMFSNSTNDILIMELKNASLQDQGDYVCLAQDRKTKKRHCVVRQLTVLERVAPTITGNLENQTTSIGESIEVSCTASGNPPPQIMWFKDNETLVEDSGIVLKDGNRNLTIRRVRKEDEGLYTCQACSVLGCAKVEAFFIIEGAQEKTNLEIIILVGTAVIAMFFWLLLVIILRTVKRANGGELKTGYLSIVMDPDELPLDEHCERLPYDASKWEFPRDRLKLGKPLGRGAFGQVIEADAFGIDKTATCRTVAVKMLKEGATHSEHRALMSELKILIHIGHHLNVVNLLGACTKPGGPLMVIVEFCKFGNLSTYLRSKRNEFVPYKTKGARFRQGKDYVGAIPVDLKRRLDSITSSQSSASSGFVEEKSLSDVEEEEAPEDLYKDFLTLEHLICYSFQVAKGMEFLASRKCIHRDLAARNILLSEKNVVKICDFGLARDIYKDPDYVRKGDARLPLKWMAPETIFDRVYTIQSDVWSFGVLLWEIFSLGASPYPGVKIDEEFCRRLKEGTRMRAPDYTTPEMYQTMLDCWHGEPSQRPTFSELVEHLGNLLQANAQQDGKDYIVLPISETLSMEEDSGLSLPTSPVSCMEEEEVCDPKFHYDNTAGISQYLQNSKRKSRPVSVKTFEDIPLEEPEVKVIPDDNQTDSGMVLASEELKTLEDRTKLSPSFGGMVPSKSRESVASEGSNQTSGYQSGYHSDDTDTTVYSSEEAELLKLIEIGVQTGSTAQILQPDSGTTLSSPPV

| SMILES | Compound recovery [1] | Compound recovery (Plasma [2]) | Compound recovery [3] | Compound recovery (Plasma [4]) | Compound recovery (Plasma [5]) | Compound recovery (Plasma [6]) [%] | Compound recovery (Plasma [8]) | Compound recovery (Plasma [10]) [%] | Compound recovery (Plasma [11]) [%] | Compound recovery (Plasma [13]) [%] | Compound recovery [14] | Compound recovery (Plasma [15]) [%] | Compound recovery [17] | Compound recovery (Plasma [18]) [%] | Compound recovery [19] | Compound recovery [20] | Compound recovery [21] | Compound recovery [22] | Compound recovery (Plasma [26]) [%] | AUC metabolite/AUC radiolabel (Rattus norvegicus [27]) [%] | further results |
| --- | --- | --- | --- | --- | --- | --- | --- | --- | --- | --- | --- | --- | --- | --- | --- | --- | --- | --- | --- | --- | --- |
| Cc1cc2c(F)c(Oc3ncnn4cc(OC[C@@H](C)O[C@@H]5O[C@H](C(=O)O)[C@@H](O)[C@H](O)[C@H]5O)c(C)c34)ccc2[nH]1 | metabolite_not_detected | metabolite_not_detected | 1.1% | metabolite_not_detected | metabolite_not_detected | 2.6 | metabolite_not_detected | 2.2 | 1.9 | 0.9 | metabolite_not_detected | 7.2 | metabolite_not_detected | 2.3 | 0.3% | 0.6% | metabolite_not_detected |  |  |  | Compound recovery (Plasma [7]): metabolite_detected; Compound recovery [9]: metabolite_detected; Compound recovery (Plasma [12]): metabolite_detected; Compound recovery (Plasma [16]): metabolite_detected |
| Cc1c(OC[C@@H](C)OS(=O)(=O)O)cn2ncnc(Oc3ccc4[nH]c(C(=O)O)cc4c3F)c12 | 26.6% |  | 2.4% |  |  |  |  |  |  |  | 4% |  | 5.7% |  |  | 4.9% | metabolite_not_detected | 2.5% |  |  | Compound recovery [23]: metabolite_detected |
| Cc1c(OC[C@@H](C)O)cn2ncnc(Oc3ccc4[nH]c(C(=O)O)cc4c3F)c12 | 7.4% | 4.9% | 0.4% | 4.6% | 3.5% | 6.8 | 11.4% | 6.4 | 8.6 | 6.9 | 22% | 3.1 | 12.8% | 7.6 | 1.1% | 10.5% | 0.5% | 0.9% | 5.3 | 9.2 | IC50 [24]: > 30 µM; IC50 [25]: > 30 µM; AUC (Rattus norvegicus [28]): 12825.3 ugequiv/l.hr; Compound recovery (Plasma [29]): 5.3%; AUC (Homo sapiens [30]): 4119.3 ugequiv/l.hr; AUC metabolite/AUC radiolabel (Homo sapiens [31]): 6.3%; AUC (Cynomolgus monkey [32]): 5006 ugequiv/l.hr; Compound recovery (Plasma [33]): 5.1%; AUC metabolite/AUC radiolabel (Cynomolgus monkey [34]): 7.2% |
| Cc1cc2c(F)c(Oc3ncnn4cc(OC[C@@H](C)O)c(C)c34)ccc2[nH]1 [BRIVANIB] | 7.5% | 46.7% | metabolite_not_detected | 38% | 71.9% | 72.4 | 57.1% | 62.7 | 44.2 | 60.8 | 6.5% | 70.7 | 1.8% | 56.9 | metabolite_not_detected | metabolite_not_detected | metabolite_not_detected | metabolite_not_detected | 14.3 | 17 | Tmax (Cynomolgus monkey [35]): 2 h; AUCt (Cynomolgus monkey [36]): 49000 ng·h/mL; Tmax (Homo sapiens [37]): 1 h; AUCt (Rattus norvegicus [38]): 35500 ng·h/mL; Cmax (Rattus norvegicus [39]): 6400 ng/mL; AUCt (Homo sapiens [40]): 45900 ng·h/mL; Cmax (Cynomolgus monkey [41]): 6200 ng/mL; AUC (Rattus norvegicus [28]): 23709.8 ugequiv/l.hr; Compound recovery (Plasma [29]): 15.8%; Cmax (Homo sapiens [42]): 6100 ng/mL; AUC (Homo sapiens [30]): 30257.7 ugequiv/l.hr; AUC metabolite/AUC radiolabel (Homo sapiens [31]): 46.1%; Compound recovery (Liver microsome): metabolite_detected; AUC (Cynomolgus monkey [32]): 42587.2 ugequiv/l.hr; Compound recovery (Plasma [33]): 22%; AUC metabolite/AUC radiolabel (Cynomolgus monkey [34]): 61.4%; Tmax (Rattus norvegicus [43]): 1 h |

— ChEMBL document CHEMBL3526109 (Drug Metab Dispos, 2011)
